Experimental data published in article PMC9807592, “New thioxothiazolidinyl-acetamides derivatives as potent urease inhibitors: design, synthesis, in vitro inhibition, and molecular dynamic simulation” (Scientific Reports, 2023).
≈ marks a conversion by molar mass, not a printed value. Where two headings read alike, the source gives them in different places.

Experiments:
[1] = system: S. aureus biofilm; assay: Inhibition of biofilm formation (crystal violet assay); format: cell-based; settings: Staphylococcus aureus, read-out: inhibition in the development of biofilm by S. aureus
Protocol: To evaluate the ability of the synthesized compounds 6a-i to prevent biofilm formation by standard species of S. aureus (ATCC25923) and MRSA strain, biofilms were pre-formed in 96 well plates, as previously described. Firstly, bacterial strains were inoculated into Tryptic Soy Broth (TSB) medium. The cells were cultivated on a shaker overnight for 180 r/min at 37 °C. Then, the suspension was centrifuged, and the cells were washed with PBS three times. Diluted cell suspension of strains was added into the wells with 1 × 10^6 final concentration. The plates were incubated for 4 h at 37 °C. After that, 100 μl of each of the dissolved compounds was added to a final concentration of […] in the wells. The plates were further incubated for 24 h at 37 °C. Following incubation, the crystal violet assay was performed to evaluate the inhibition of biofilm formation. For this purpose, the supernatant of the wells was aspirated gently, and the wells were washed three times with sterile distilled water. […] Assessment of biofilm formation was performed by transferring 100 μl of the destaining solution to a new plate and measuring the absorbance at 590 nm using a microplate reader. […] The mean absorbance (OD590 nm) of the samples was determined, and percentage inhibition was obtained using Eq. (1) as follows: 1 Percentageinhibition:ODblank-ODtest×100/ODblank

[2] = system: methicillin-resistant Staphylococcus aureus (MRSA) isolates; assay: Antimicrobial activity against resistant isolates; format: cell-based
Protocol: Regarding the antibacterial activity of 6n and 6o against the standard strain of S. aureus, these derivatives were tested against methicillin-resistant Staphylococcus aureus (MRSA) isolates.
(§1) Briefly, twofold serial dilutions of the compounds were prepared in Mueller–Hinton Broth (MHB, HiMedia) for bacterial strains and RPMI-1640 (Sigma-Aldrich) for yeast strain (Ranging 1–512 µg/ml). Then, 100 μL of each dilution was transferred into the well of a microtiter plate and inoculated with 100 μL of cell suspension with a final density of 1–5 × 10^3 CFU/ml for yeasts and 1–1.5 × 10^6 cells/ml for bacteria. Plates were incubated at proper temperature overnight, and the minimum inhibitory concentration (MIC) of compounds was determined as the lowest concentration that prevented visible growth of tested microorganisms compared with the growth in the control wells (wells without tested compounds). Moreover, the minimum bactericidal/fungicidal concentration (MBC/MFC) of compounds was determined by transferring the 10 µl of clear wells into the agar media. Standard antibacterial and antifungal agents (Ciprofloxacin and Fluconazole) were evaluated. All experiments were performed in duplicate[30],[31].

[3] = In vitro cytotoxic evaluation (MTT assay); format: cell-based; settings: human, MOLT-4 cells
Protocol: MOLT-4 (human acute lymphoblastic leukemia) cells were cultures in RPMI-1640 medium supplemented with 10% heat-inactivated fetal bovine serum. Cell viability was measured by the MTT assay. MOLT-4 cells were seeded into 96-well micro-culture plates. After 24 h, the culture medium was replaced with a medium containing different concentrations of newly synthesized derivatives. Control wells were supplemented with the same volume of growth medium not containing any drugs. Cells were then incubated at 37 °C for 72 h. At the end of the exposure time, the medium was removed and MTT solution of 0.5 mg/ml was added to each well. The plates were incubated at 37 °C for 4 h, after which DMSO was added to each well to solubilize the formed formazan crystals, and the absorbance of each well was read with a microplate reader at 570 nm.

[4] = system: C. albicans ATCC 10261; assay: Antimicrobial activity, broth microdilution (CLSI); format: cell-based; settings: Candida albicans, ATCC10261
Protocol: The antimicrobial activity of designed compounds was investigated using broth microdilution.
as §1

[5] = system: clinical isolate of P. vulgaris; assay: Antimicrobial activity, broth microdilution (CLSI); format: cell-based; settings: Proteus vulgaris
Protocol: (§2) Then, 100 μL of each dilution was transferred into the well of a microtiter plate and inoculated with 100 μL of cell suspension with a final density of 1–5 × 10^3 CFU/ml for yeasts and 1–1.5 × 10^6 cells/ml for bacteria. Plates were incubated at proper temperature overnight, and the minimum inhibitory concentration (MIC) of compounds was determined as the lowest concentration that prevented visible growth of tested microorganisms compared with the growth in the control wells (wells without tested compounds). […] All experiments were performed in duplicate[30],[31].

[6] = system: S. aureus ATCC 25923; assay: Antimicrobial activity, broth microdilution (CLSI); format: cell-based; settings: Staphylococcus aureus, ATCC25923
Protocol: as §2

[7] = system: E. coli ATCC 25922; assay: Antimicrobial activity, broth microdilution (CLSI); format: cell-based
Protocol: as §2

[8] = molecular target: urease (Canavalia ensiformis, UniProt P07374); assay: biochemical; format: biochemical
Protocol: The assay was performed exactly according to our previous report. Briefly, 850 μL of urea and 15 μL urease (0.135 units dissolved in PBS, pH 7.4) were added to 100 μL of the synthesized derivatives at different concentrations. After 30 min, to 100 μL of the incubated solution, 500 μL solution I (5.0 g phenol and 25.0 mg sodium nitroprusside in 500 mL water) was added followed by the addition of 500 μL of solution II (2.5 g sodium hydroxide, 4.2 mL sodium hypochlorite, and 5% chlorine in 500 mL water) which was further incubated at 37 °C for 30 min. The absorbance was determined by measuring indophenols at 625 nm. Thiourea was used as the standard inhibitor for urease. The IC50 values for all synthesized compounds were calculated using GraphPad Prism software (GraphPad Software, Inc., San Diego, CA)[20].

[9] = Escherichia coli, ATCC25922, read-out: MIC

Sequence of urease (P07374 whole entry, looked up): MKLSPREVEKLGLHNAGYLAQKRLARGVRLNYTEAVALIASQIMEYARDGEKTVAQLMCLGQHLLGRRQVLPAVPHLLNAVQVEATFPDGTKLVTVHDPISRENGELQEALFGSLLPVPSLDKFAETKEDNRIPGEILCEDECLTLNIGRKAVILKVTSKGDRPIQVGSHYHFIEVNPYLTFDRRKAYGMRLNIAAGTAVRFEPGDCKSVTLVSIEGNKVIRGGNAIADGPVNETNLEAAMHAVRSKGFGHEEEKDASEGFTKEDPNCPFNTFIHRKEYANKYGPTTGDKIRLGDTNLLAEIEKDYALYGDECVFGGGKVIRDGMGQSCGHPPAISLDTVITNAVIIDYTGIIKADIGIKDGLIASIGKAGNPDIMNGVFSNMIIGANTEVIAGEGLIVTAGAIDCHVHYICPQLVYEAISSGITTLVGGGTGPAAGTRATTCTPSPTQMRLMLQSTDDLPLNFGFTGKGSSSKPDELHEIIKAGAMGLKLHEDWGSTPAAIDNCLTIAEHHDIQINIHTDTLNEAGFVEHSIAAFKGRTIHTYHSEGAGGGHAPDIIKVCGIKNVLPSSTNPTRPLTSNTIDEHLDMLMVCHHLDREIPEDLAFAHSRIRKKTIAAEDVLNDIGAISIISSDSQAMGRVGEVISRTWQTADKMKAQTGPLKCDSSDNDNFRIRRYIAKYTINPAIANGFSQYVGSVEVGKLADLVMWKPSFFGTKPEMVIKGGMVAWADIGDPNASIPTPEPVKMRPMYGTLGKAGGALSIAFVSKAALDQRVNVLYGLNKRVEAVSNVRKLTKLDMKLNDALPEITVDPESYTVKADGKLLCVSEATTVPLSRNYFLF

| SMILES | inhibition at 512 µg/mL [1] | melting point | MIC [2] | viability at 72 h, 100 µM [3] | MIC [4] | MIC [5] | MBC [6] | MIC [6] | MIC [7, 9] | IC50 [8] | MIC [7] | MBC ([7]; Escherichia coli, ATCC25922) |
| --- | --- | --- | --- | --- | --- | --- | --- | --- | --- | --- | --- | --- |
| CCCNC(=O)CC1SC(=S)N(CC(C)C)C1=O (stereo not shown) [Compound 6n, 2-(3-isobutyl-4-oxo-2-thioxothiazolidin-5-yl)-N-propylacetamide] | 37% | 160 to 162 °C | 128 µg/mL (≈ 444 µM) | 96.4 ± 2.2% | > 512 µg/mL | > 512 µg/mL | > 512 µg/mL | 128 µg/mL (≈ 444 µM) | > 512 µg/mL | 2.38 ± 0.49 µM | – | – |
| C=CCNC(=O)CC1SC(=S)N(CC(C)C)C1=O (stereo not shown) [Compound 6o, N-allyl-2-(3-isobutyl-4-oxo-2-thioxothiazolidin-5-yl)acetamide] | 27% | 164 to 166 °C | 512 µg/mL (≈ 1790 µM) | 97.3 ± 3.5% | > 512 µg/mL | > 512 µg/mL | 256 µg/mL (≈ 894 µM) | 128 µg/mL (≈ 447 µM) | 512 µg/mL (≈ 1790 µM) | 9.27 ± 1.65 µM | 512 µg/mL (≈ 1790 µM) | > 512 µg/mL |
